According to paper PMC5603865, “Synthesis, In-Vitro Activity and Metabolic Properties of Quinocetone and Structurally Similar Compounds” (Iranian Journal of Pharmaceutical Research : IJPR, 2017):
≈ marks a conversion by molar mass, not a printed value. Read-outs that look alike come from different tables or passages of the source.

Experiments:
[1] = tested on: HepG2 cells; test: Identification of metabolic pathways in HepG2 cells by LC-MS/MS; format: in vitro ADME, human; conditions: HepG2 cells incubated for 24 h
Procedure: For recognition of the metabolic characteristics of quinocetone (3a), deoxyquinocetone (5a), olaquindox, 3-methyl-2-(3-fura-2-propenoyl)-quinoxaline -1,4-dioxide 6, and 3-methyl -2-quinoxaline-2-carboxylate-1,4-dioxide 8, HepG2 cells were seeded at 6× 10^4 cells/ml density in 24-well plates. After 24 h incubation, the medium was replaced with fresh medium containing various concentrations ([…]) of test compounds. After 24 h incubation, the medium was collected and extracted with ethyl acetate then centrifuged at […] for 20min at 4 °C. The organic supernatant was evaporated under nitrogen atmosphere at 40 °C, the residue was dissolved in 200μL acetonitrile. The aliquot was filtered by a 0.22 μM membrane then analyzed. The blank is conducted in the absence of pharmaceuticals.
All experiments were performed with a Waters Alliance 2695 LC system (Waters) and a quattro micro API quadruple mass spectrometer (Micromass, Manchester, UK) equipped with an electro-spray ion source (ESI).
LC analysis was carried out on an XTerra C18 HPLC column (2.1 mm×100 mm, 3.5 μM) (Waters, Milford, MA, USA) equipped with a guard column (XTerra C18 2.1 mm×100 mm, 3.5μM) (Waters, Milford, MA, USA). […]
The MS instrument was used for analysis operating in a positive ion mode. […] The spectra was recorded in the range m/z 50~500 for full scan MS analysis. […]

[2] = tested on: Clostridium perfringen CVCC52,8604; test: In-vitro antibacterial activity, MIC by broth dilution (anaerobic chamber); format: cell-based; conditions: Clostridium, 24 h
Procedure: (§1) All test compounds were dissolved in dimethyl sulfoxide (DMSO, Sigma, USA) and then diluted in Dulbecco’s modified Eagle’s medium (DMEM, Gibco, USA) at desired concentrations for cell proliferation analyses or diluted in nutrient broth medium for antimicrobial susceptibility testing respectively. The final concentration of DMSO in the DMEM culture medium was under 0.1% (v:v).
(§2) The preliminary antibacterial activities were obtained for selected compounds against various bacteria, namely: Staphyloccocus aureus ATCC25923 (Gram-positive bacteria), Clostridium perfringen CVCC52,8604 (anaerobes bacteria), Salmonella pullorum (Gram-negative bacteria), Escherichia coli ATCC25922 (Gram negative bacteria) and Aeromonas hydrophila (Gram-negative bacteria) were used in the study. Each strain was cultured in appropriate broth medium. Clostridium perfringen was incubated in an anaerobic chamber. The minimum inhibitory concentration (MIC) for each test compound was estimated using the broth dilution method. The MIC’s was determined for each strain/compound pairs that presented antimicrobial activity. The method was modified from Mohapatra›s methods ([14], [15]). Cell suspensions were prepared in 2 mL of liquid medium with concentrations of various tests of compounds in 15 mL culture tubes by inoculation with 100 μL of 10^6 cfu/mL from each stock. The cultures were incubated at 28 °C or 37 °C for 24 h. Tubes showing no visible turbidity represented the MIC, and subsequently, were inoculated on the right side of the 9cm sterile nutrient agar plates without various test compounds and incubated for 24 h (Clostridium perfringen was incubated in an anaerobic chamber.). The least concentration, at which no growth was observed, represented the minimum bactericidal concentration (MBC) ([16]).

[3] = tested on: normal human Chang liver cells; test: In-vitro cytotoxicity, MTT cell proliferation assay; format: cell-based; conditions: 24 h incubation, concentration reducing viable cells by 50%
Procedure: as §1
(§3) HepG2 and normal human Chang liver cells were obtained from the Institute of Biochemistry and Cell Biology, Shanghai Institutes for Biological Sciences, Chinese Academy of Sciences (Shanghai, China). HepG2 and normal human Chang liver cells were cultured at 37˚Cwith 5% CO2 in DMEM supplemented with 2% L-glutamine, 10% fetal bovine serum (Gibco, USA), 100 U/mL penicillin and 100 […] (Gibco, USA).
(§4) The methodology for evaluating the cytotoxicity inhibitory activity of various test compounds towards cell proliferation has been described previously ([11], [17]). Cell proliferation inhibitory analyses were carried out using the 3-(4,5-dimethylthiazole-2-yl)-2,5-diphenyl tetrazolium bromide (MTT, Sigma, USA) assay. Briefly, cancers HepG2 and normal human Chang liver cells were harvested and resuspended in fresh growth medium. A 100 μL cell suspension (5 × 10^4 cells/mL) was aliquoted into each well of a 96-well culture plate. After 12 h incubation, the medium was replaced with fresh medium containing various concentrations of test compounds. The cells were then incubated for another 24 h. At the end of exposure, 10 μL of MTT solution (5 mg/mL) was added, and the cells were incubated for 4 h at 37 °C. The cells were treated with 100 μL DMSO, and absorbance was recorded at 570 nm using a microplate ELISA reader (ELX800, Bio-Tek, USA). All experiments were performed at least thrice, and data were presented as the mean of sixplicate wells ± standard deviation (SD). Cell inhibition was calculated as follows:
(§5) (OD of control group − OD of experimental group) / (OD of control group − OD of blank group) ×100%. The IC50 value for a compound was calculated using SPSS.

[4] = tested on: HepG2, Vero, L-02 and Chang liver cell lines; parameters: method as in PMID 19061932, PMID 22840332; conditions: in-vitro, ref [7],[11]; cited from earlier work
[5] = tested on: Gram-positive and Gram-negative bacteria; test: Antibacterial activity class based on the MIC results; format: cell-based
Procedure: as §2
In this study, activity of quinoxaline-1, 4-dioxides and their deoxygenations was tested against selected Gram-negative bacteria (Escherichia coli, Salmonella pullorum and Aeromonas hydrophila), Gram-positive bacteria (Staphyloccocus aureus and Clostridium perfringen). The in-vitro antibacterial activity was based on the MIC results: Strong antibacterial activity, if MIC is less than 50 μg/mL; Moderate, if MIC is in between 50 and 250 μg/mL; No activity, if MIC is more than 500 μg/mL.

[6] = tested on: Salmonella pullorum; test: In-vitro antibacterial activity, MIC by broth dilution; format: cell-based; conditions: Salmonella enterica, PULLORUM, 24 h
Procedure: as §1, §2

[7] = tested on: Escherichia coli ATCC25922; test: as above; format: cell-based; conditions: Escherichia coli, read-out: MIC values Escherichia coli ATCC25922
Procedure: as §1, §2

[8] = tested on: Staphyloccocus aureus ATCC25923; test: as above; format: cell-based; conditions: broth dilution, 24 h; read-out: MIC values Staphyloccocus aureus ATCC25923
Procedure: as §1, §2

[9] = tested on: Aeromonas hydrophila; test: as above; format: cell-based; conditions: Aeromonas hydrophila, 24 h, read-out: MIC values Aeromonas hydrophila
Procedure: as §1, §2

[10] = tested on: HepG2 cells; test: In-vitro cytotoxicity, MTT cell proliferation assay; format: cell-based, human; conditions: 24 h incubation, concentration reducing viable cells by 50%
Procedure: as §1, §3, §4, §5

[11] = tested on: Aeromonas hydrophila; test: Minimum bactericidal concentration (MBC), subculture on nutrient agar; format: cell-based; conditions: least concentration with no growth on agar plates, 24 h
Procedure: as §2, with “The least concentration, at which no growth was observed, represented the minimum bactericidal concentration (MBC) ([16]).” left out

[12] = Homo sapiens, Chang liver, 24 h
[13] = ATCC25922, broth dilution, 24 h

## Cc1c(C(=O)C=Cc2ccccc2)[n+]([O-])c2ccccc2[n+]1[O-] [Compound 3a, 3-Methyl-2-(3-phenyl-2-propenoyl)-quinoxaline-1,4-dioxide, reference compound]
[1]
  categories of metabolites in HepG2 cells: reduction, hydroxylation, and a combination of reduction and hydroxylation
[2]
  MIC: 196 mg/L (≈ 639 µM)
[3]
  IC50: 63.3 ± 5.55 µM
[3]; [12]
  IC50: 63 µM
[4]
  growth inhibitory effects: significant growth inhibitory effects
[5]
  antibacterial activity against Gram-positive and Gram-negative bacteria: strong or moderate activity
[6]
  MIC: 49 mg/L (≈ 160 µM)
[7]; [13]
  MIC: 97.9 mg/L (≈ 320 µM)
[8]
  MIC: 24.5 mg/L (≈ 79.9 µM)
[9]; broth dilution
  MIC: 49 mg/L (≈ 160 µM)
[10]
  IC50: 49.3 ± 1.94 µM
[10]; Homo sapiens, HepG2, 24 h
  IC50: 49 µM

## CCOC(=O)c1c(C)[n+]([O-])c2ccccc2[n+]1[O-] [Compound 8, 3-methyl-2-quinoxaline-2-carboxylate-1,4-dioxide]
[2]
  MIC: 4.96 mg/L (≈ 20 µM)
[3]; [12]
  IC50: 217 ± 3.52 µM
[5]
  antibacterial activity against Gram-positive and Gram-negative bacteria: strong or moderate activity
[6]
  MIC: 19.8 mg/L (≈ 79.9 µM)
[7]; ATCC25922, 24 h
  MIC: 4.96 mg/L (≈ 20 µM)
[8]
  MIC: 39.7 mg/L (≈ 160 µM)
[9]; broth dilution
  MIC: 39.7 mg/L (≈ 160 µM)
[10]; Homo sapiens, HepG2, 24 h
  IC50: 217 ± 3.48 µM

## CCOC(=O)c1nc2ccccc2nc1C [Compound 9, 3-methyl-2-quinoxaline-2-carboxylate]
[2]
  MIC: > 500 mg/L
[3]; [12]
  IC50: 610 ± 18.4 µM
[5]
  antibacterial activity against Gram-positive and Gram-negative bacteria: little or no activity
[6]
  MIC: > 500 mg/L
[7]; [13]
  MIC: > 500 mg/L
[8]
  MIC: > 500 mg/L
[9]; broth dilution
  MIC: 138 mg/L (≈ 639 µM)
[10]; Homo sapiens, HepG2, 24 h
  IC50: 547 ± 7.71 µM

## Cc1c[n+]([O-])c2ccccc2[n+]1[O-] [Compound 11, 3-methyl-quinoxaline-1,4-dioxide]
[2]
  MIC: 225 mg/L (≈ 1280 µM)
[3]; [12]
  IC50: 452 ± 6.86 µM
other
  melting point: 173.5 to 176.8 °C
[5]
  antibacterial activity against Gram-positive and Gram-negative bacteria: little or no activity
[6]
  MIC: 451 mg/L (≈ 2560 µM)
[7]; [13]
  MIC: 56.3 mg/L (≈ 320 µM)
[8]
  MIC: 451 mg/L (≈ 2560 µM)
[9]
  MIC: 225 mg/L (≈ 1280 µM)
[10]; Homo sapiens, HepG2, 24 h
  IC50: 465 ± 28.8 µM

## Cc1c(C(=O)NCCO)[n+]([O-])c2ccccc2[n+]1[O-] [olaquindox, n-(2-hydroxyethyl)-3-methyl-2-quinoxalinecarboxamide 1,4-dioxide, reference compound]
[2]
  MIC: 67.3 mg/L (≈ 256 µM)
[3]; [12]
  IC50: 815 ± 31.2 µM
[4]
  growth inhibitory effects: much lower than quinocetone
[5]
  antibacterial activity against Gram-positive and Gram-negative bacteria: strong or moderate activity
[6]
  MIC: 84.2 mg/L (≈ 320 µM)
[7]; [13]
  MIC: 21 mg/L (≈ 79.9 µM)
[8]
  MIC: 42.1 mg/L (≈ 160 µM)
[9]; broth dilution
  MIC: 21 mg/L (≈ 79.9 µM)
[11]
  MBC: 84.2 mg/L (≈ 320 µM)
[10]; Homo sapiens, HepG2, 24 h
  IC50: 893 ± 14.7 µM
